Measured values: patent US10392385B2, “N-((1-phenyl-9H-pyrido[3,4-b]indol-3-yl)methyl)cinnamamides as potential anticancer agents and preparation thereof” (Council of Scientific & Industrial Research, priority 2016, dated 2019)

Key:
MCF-7 (breast cancer) = test: MTT cytotoxicity assay, MCF-7; format: cell-based; settings: Homo sapiens, MCF7, average of three experiments
From the text: (§1) The N-((1-phenyl-9H-pyrido[3,4-b]indol-3-yl)methyl)cinnamamides (1a-h, 2a-h and 3a-h) have been tested against five human cancer cell lines such as A549 (lung cancer), MCF-7 (breast cancer), B16 (melanoma), HeLa (cervical cancer) and NIH3T3 (mouse embryonic fibroblast cancer). All the cancer cell lines (HeLa, A549, MCF-7 and B16) were procured from National Centre for Cell Sciences (NCCS, Pune, India) and NIH 3T3 cell line was obtained from American Type Culture Collection (Rockville, Md., USA). Stock cells were cultured in DMEM supplemented with 10% Fetal Bovine Serum (FBS), in an humidified atmosphere of 5% CO2 at 37° C. until they are 80% confluent. To study the cytotoxicity of the compounds, after 80% confluence, cells were trypsinized with 0.1% trypsin-EDTA and harvested by centrifugation at 500×g. Serial dilutions of cells were made from 1×10^6 to 1×10^3 cells per mL The cells were seeded in triplicate in a 96 well plate. […]. […] The cell viability was determined by measuring the ability of cells to transform MTT to a purple coloured formazan dye. The absorbance of samples at 570 nm was measured using a UV-Visible spectrophotometer. Percentage of viable cells was calculated by using the formula given below.
(§2) Where the OD570 (sample) corresponds to absorbance obtained from the wells treated with compound and OD570 (control) represents the absorbance from the wells in which no compound was added. For these compounds results are expressed as half maximal inhibitory concentration (IC50) values and the anticancer activity data of 1a-h, 2a-h and 3a-h are shown in Table 2.

A549 (lung cancer) = test: MTT cytotoxicity assay, A549; format: cell-based; settings: Homo sapiens, 48 h of drug treatment (footnote), average of three experiments
From the text: as §1
Where the OD570 (sample) corresponds to absorbance obtained from the wells treated with compound and OD570 (control) represents the absorbance from the wells in which no compound was added.

B16 (melanoma) = test: MTT cytotoxicity assay, B16; format: cell-based; settings: 48 h of drug treatment (footnote), average of three experiments
From the text: as §1, §2

HeLa (cervical cancer) = test: MTT cytotoxicity assay, HeLa; format: cell-based; settings: Homo sapiens, of drug treatment (footnote), average of three experiments
From the text: as §1, §2

[1] = test system: NIH3T3 (mouse embryonic fibroblast cell line); test: MTT cytotoxicity assay, NIH3T3; format: cell-based; settings: 48 h of drug treatment (footnote), average of three experiments
From the text: as §1, §2

Row | SMILES | IC50 (MCF-7 (breast cancer)) [nM] | IC50 (A549 (lung cancer)) [nM] | melting point [°C] | IC50 (B16 (melanoma)) [nM] | IC50 (HeLa (cervical cancer)) [nM] | IC50 [1] [nM]
1 | COc1cc(/C=C/C(=O)NCc2cc3c([nH]c4ccccc43)c(-c3cccc(F)c3)n2)cc(OC)c1OC [Compound 1a, (E)-N-((1-(3-fluorophenyl)-9H-pyrido[3,4-b]indol-3-yl)methyl)-3-(3,4,5-trimethoxyphenyl)acrylamide] | 16.2 ± 1.5 | 17.9 ± 0.6 | 148 to 150 | 19.8 ± 0.6 | 23 ± 0.7 | 36 ± 1.3
2 | O=C(/C=C/c1ccc(Cl)c(Cl)c1)NCc1cc2c([nH]c3ccccc32)c(-c2cccc(F)c2)n1 [Compound 1b, (E)-3-(3,4-dichlorophenyl)-N-((1-(3-fluorophenyl)-9H-pyrido[3,4-b]indol-3-yl)methyl)acrylamide] | 17 ± 1.2 | 18 ± 0.8 | 255 to 258 | 18.9 ± 0.4 | 24.9 ± 0.4 | 39 ± 1.1
3 | O=C(/C=C/c1ccc(F)cc1)NCc1cc2c([nH]c3ccccc32)c(-c2cccc(F)c2)n1 [Compound 1c, (E)-3-(4-fluorophenyl)-N-((1-(3-fluorophenyl)-9H-pyrido[3,4-b]indol-3-yl)methyl)acrylamide] | 16.5 ± 1.8 | 16.3 ± 0.3 | 258 to 264 | 16.8 ± 0.8 | 24.3 ± 0.6 | 30.8 ± 2.1
4 | O=C(/C=C/c1cc(F)cc(F)c1)NCc1cc2c([nH]c3ccccc32)c(-c2cccc(F)c2)n1 [Compound 1d, (E)-3-(3,5-difluorophenyl)-N-((1-(3-fluorophenyl)-9H-pyrido[3,4-b]indol-3-yl)methyl)acrylamide] | 16.5 ± 0.6 | 21 ± 1.2 | 215 to 220 | 18.2 ± 0.3 | 23.6 ± 0.5 | 36 ± 2.3
5 | COc1ccc(OC)c(/C=C/C(=O)NCc2cc3c([nH]c4ccccc43)c(-c3cccc(F)c3)n2)c1 [Compound 1e, (E)-3-(2,5-dimethoxyphenyl)-N-((1-(3-fluorophenyl)-9H-pyrido[3,4-b]indol-3-yl)methyl)acrylamide] | 17.5 ± 0.3 | 22.2 ± 1.1 | 228 to 230 | 19.9 ± 0.7 | 21.87 ± 0.2 | 39.6 ± 1.8
6 | O=C(/C=C/c1ccc(Cl)cc1)NCc1cc2c([nH]c3ccccc32)c(-c2cccc(F)c2)n1 [Compound 1f, (E)-3-(4-chlorophenyl)-N-((1-(3-fluorophenyl)-9H-pyrido[3,4-b]indol-3-yl)methyl)acrylamide] | 18.3 ± 0.8 | 19.6 ± 1.6 | 248 to 250 | 18.2 ± 1.3 | 19.2 ± 0.6 | 43.6 ± 1.1
7 | COc1cc(/C=C/C(=O)NCc2cc3c([nH]c4ccccc43)c(-c3cccc(F)c3)n2)ccc1O [Compound 1g, (E)-N-((1-(3-fluorophenyl)-9H-pyrido[3,4-b]indol-3-yl)methyl)-3-(4-hydroxy-3-methoxyphenyl)acrylamide] | 17.9 ± 0.7 | 22.4 ± 1.1 | 205 to 210 | 19.4 ± 1.1 | 23.9 ± 0.4 | 36.9 ± 1.9
8 | O=C(/C=C/c1cccc(O)c1)NCc1cc2c([nH]c3ccccc32)c(-c2cccc(F)c2)n1 [Compound 1h, (E)-N-((1-(3-fluorophenyl)-9H-pyrido[3,4-b]indol-3-yl)methyl)-3-(3-hydroxyphenyl)acrylamide] | 19.2 ± 0.6 | 23.4 ± 0.8 | 142 to 148 | 24.9 ± 0.5 | 27 ± 0.5 | 35.7 ± 2.2
9 | COc1cc(/C=C/C(=O)NCc2cc3c([nH]c4ccccc43)c(-c3cc(OC)c(OC)c(OC)c3)n2)cc(OC)c1OC [Compound 2a, (E)-3-(3,4,5-trimethoxyphenyl)-N-((1-(3,4,5-trimethoxyphenyl)-9H-pyrido[3,4-b]indol-3-yl)methyl)acrylamide] | 16.5 ± 1.1 | 21.3 ± 0.9 |  | 17.2 ± 0.4 | 23.5 ± 0.3 | 38.9 ± 2.5
10 | COc1cc(-c2nc(CNC(=O)/C=C/c3ccc(Cl)c(Cl)c3)cc3c2[nH]c2ccccc23)cc(OC)c1OC [Compound 2b, (E)-3-(3,4-dichlorophenyl)-N-((1-(3,4,5-trimethoxyphenyl)-9H-pyrido[3,4-b]indol-3-yl)methyl)acrylamide] | 17.5 ± 1.4 | 20.4 ± 0.7 |  | 16.9 ± 0.7 | 25.87 ± 0.2 | 39.2 ± 1.9
11 | COc1cc(-c2nc(CNC(=O)/C=C/c3ccc(F)cc3)cc3c2[nH]c2ccccc23)cc(OC)c1OC [Compound 2c, (E)-3-(4-fluorophenyl)-N-((1-(3,4,5-trimethoxyphenyl)-9H-pyrido[3,4-b]indol-3-yl)methyl)acrylamide] | 16.4 ± 0.8 | 18.7 ± 0.7 | 214 to 218 | 17.2 ± 0.3 | 20 ± 0.5 | 43 ± 1.1
12 | COc1cc(-c2nc(CNC(=O)/C=C/c3cc(F)cc(F)c3)cc3c2[nH]c2ccccc23)cc(OC)c1OC [Compound 2d, (E)-3-(3,5-difluorophenyl)-N-((1-(3,4,5-trimethoxyphenyl)-9H-pyrido[3,4-b]indol-3-yl)methyl)acrylamide] | 19.6 ± 1.1 | 21.6 ± 1.2 | 228 to 230 | 24.1 ± 0.7 | 23.8 ± 0.3 | 36.3 ± 1.7
13 | COc1ccc(OC)c(/C=C/C(=O)NCc2cc3c([nH]c4ccccc43)c(-c3cc(OC)c(OC)c(OC)c3)n2)c1 [Compound 2e, (E)-3-(2,5-dimethoxyphenyl)-N-((1-(3,4,5-trimethoxyphenyl)-9H-pyrido[3,4-b]indol-3-yl)methyl)acrylamide] | 17.2 ± 0.6 | 18.8 ± 1.4 | 148 to 150 | 19.2 ± 1.4 | 25.09 ± 0.2 | 39 ± 1.9
14 | COc1cc(-c2nc(CNC(=O)/C=C/c3ccc(Cl)cc3)cc3c2[nH]c2ccccc23)cc(OC)c1OC [Compound 2f, (E)-3-(4-chlorophenyl)-N-((1-(3,4,5-trimethoxyphenyl)-9H-pyrido[3,4-b]indol-3-yl)methyl)acrylamide] | 17.5 ± 0.9 | 18.9 ± 1.7 | 148 to 150 | 18.7 ± 1.1 | 26.8 ± 0.4 | 35.6 ± 2.1
15 | COc1cc(/C=C/C(=O)NCc2cc3c([nH]c4ccccc43)c(-c3cc(OC)c(OC)c(OC)c3)n2)ccc1O [Compound 2g, (E)-3-(4-hydroxy-3-methoxyphenyl)-N-((1-(3,4,5-trimethoxyphenyl)-9H-pyrido[3,4-b]indol-3-yl)methyl)acrylamide] | 17.6 ± 0.7 | 18.3 ± 1.4 | 175 to 178 | 19 ± 0.9 | 26 ± 0.3 | 43.1 ± 1.3
16 | COc1cc(-c2nc(CNC(=O)/C=C/c3cccc(O)c3)cc3c2[nH]c2ccccc23)cc(OC)c1OC [Compound 2h, (E)-3-(3-hydroxyphenyl)-N-((1-(3,4,5-trimethoxyphenyl)-9H-pyrido[3,4-b]indol-3-yl)methyl)acrylamide] | 16.8 ± 0.5 | 19.5 ± 1.5 | 175 to 178 | 21.8 ± 0.8 | 23.65 ± 0.1 | 38.2 ± 1.5
17 | COc1ccc(-c2nc(CNC(=O)/C=C/c3cc(OC)c(OC)c(OC)c3)cc3c2[nH]c2ccccc23)cc1 [Compound 3a, (E)-N-((1-(4-methoxyphenyl)-9H-pyrido[3,4-b]indol-3-yl)methyl)-3-(3,4,5-trimethoxyphenyl)acrylamide] | 13.4 | 19.7 ± 0.6 | 148 to 150 | 17.4 ± 0.4 | 22.89 ± 0.2 | 39.3 ± 1.7
18 | COc1ccc(-c2nc(CNC(=O)/C=C/c3ccc(Cl)c(Cl)c3)cc3c2[nH]c2ccccc23)cc1 [Compound 3b, (E)-3-(3,4-dichlorophenyl)-N-((1-(4-methoxyphenyl)-9H-pyrido[3,4-b]indol-3-yl)methyl)acrylamide] | 16.4 ± 0.5 | 18.4 ± 0.7 | 188 to 190 | 23 ± 0.5 | 21.6 ± 0.4 | 37.5 ± 1.4
19 | COc1ccc(-c2nc(CNC(=O)/C=C/c3ccc(Cl)cc3)cc3c2[nH]c2ccccc23)cc1 [Compound 3f, (E)-3-(4-chlorophenyl)-N-((1-(4-methoxyphenyl)-9H-pyrido[3,4-b]indol-3-yl)methyl)acrylamide] | 14.1 | 18.9 ± 1.1 |  | 16.6 ± 0.5 | 21.6 ± 0.6 | 38.3 ± 1.3
20 | COc1ccc(-c2nc(CNC(=O)/C=C/c3cccc(O)c3)cc3c2[nH]c2ccccc23)cc1 [Compound 3h, (E)-3-(3-hydroxyphenyl)-N-((1-(4-methoxyphenyl)-9H-pyrido[3,4-b]indol-3-yl)methyl)acrylamide] | 13.8 | 18.9 ± 1.4 |  | 16.3 ± 0.3 | 22.3 ± 0.3 | 37.2 ± 1.1
